Laboratory results from patent US8394404B2, “Adhesive material and adhesive preparation” (Nitto Denko Corporation, priority 2004, dated 2013).
“Also recorded” adds a separate entry of the source.

Assay: in vitro permeability test using the skin removed from a mouse
Format: in vitro ADME
Details: adhesive preparation of the adhesive material of Example 3 with adhesive layer containing 5% ISDN
Description: Thus, the adhesive preparation of the present invention is useful as a percutaneously absorbable adhesive preparation for continuous administration of a drug into the body.
An adhesive preparation comprising the adhesive material of the above-mentioned Example 3, which has an adhesive layer containing 5% isosorbide dinitrate (ISDN) was prepared and subjected to an in vitro permeability test using the skin removed from a mouse.

In the case of `O=[N+]([O-])O[C@H]1CO[C@H]2[C@@H]1OC[C@H]2O[N+](=O)[O-]` [ISDN, isosorbide dinitrate], the “percutaneous absorption of ISDN” value is reported as “percutaneous absorbability of ISDN was confirmed; also recorded: percutaneous absorption of ISDN was confirmed”.
